“Also recorded” adds a separate entry of the source.
Assay: Freezing of RNA lipoplexes with cryoprotectants, particle size
Conditions: RNA lipoplexes frozen with increasing concentration of the compound
Description: Methods: Different compounds representative for monosaccharides (glucose and sorbitol), disaccharides (sucrose and trehalose), amino acids (arginine, prolin), triols (glycerin) as well as cryoprotectant systems containing mixtures of different sugars (mannitol and sucrose) were investigated in order to identify suited cryoprotectants (FIGS. 25 and 26). Therefore RNA lipoplexes were frozen in the presence of increasing concentration of these compounds. In order to identify minimum content of cryoprotectant at a certain concentration of NaCl, RNA lipoplexes were frozen in the presence of increasing amounts of sucrose or trehalose as representative cryoprotectants (Table 7). The samples were initially frozen a single time in order to determine the concentration range of cryoprotectant to be investigated in detail. In a third experiment, the efficacy of stabilization of the particle size was challenged by freezing of the RNA lipoplexes up to 10 times in the presence of the cryoprotectant trehalose (Table 8).

stabilization of RNA lipoplexes during freezing (as cryoprotectant)	Compound
can be used as cryoprotectants	OCC(O)CO [Glycerin]
clearly destabilizes the RNA lipoplexes	N=C(N)NCCC[C@H](N)C(=O)O [arginine]

Compound	stabilization of RNA lipoplexes during freezing (as cryoprotectant)
OC[C@@H](O)[C@@H](O)[C@H](O)[C@@H](O)CO [sorbitol]	can be used as cryoprotectants; also recorded: lower
